≈ marks a conversion by molar mass, not a printed value. *1 amine or outer side, *2 acyl side, *3 side chain or, on linkers, in order; H or OH if unused. Where a SMILES comes first, the peptide text is derived from it. Where no end group is shown, it is not given here. [ ]: non-standard residue; d: D form. X1 = COc1ccc(C2=[N+]3C(=C(c4ccc(C[C@H](N[*:1])C(=O)[*:2])cc4)c4ccc(-c5ccc(OC)cc5)n4[B-]3(F)F)C=C2)cc1

Series [1] is classed as in vitro ADME, human. To be noted: diluted urine (urine:water 1:6). The source says:
To the best of our knowledge, compound 11 represents the first example of a Phe‐based BODIPY amino acid for SPPS with strong emission in the red region of the visible spectrum. Prior to the incorporation of Phe‐(pMP)BODIPY amino acid 11 into peptides that could detect Candida fungal cells, we prepared a small collection of Phe‐containing antimicrobial peptides as fungal‐targeting scaffolds that could later accommodate BODIPY‐based aromatic FlAAs (Figure 4b). We selected peptide analogues derived from the natural occurring temporin L (Rana temporaria, peptide 12),[31] jelleine‐I (Apis mellifera, peptide 13)[32] and Aurein1.2 (Litoria aurea or Litoria raniformis, peptide 15).[33] […] We next analysed the biological profile of peptide 17 in fungal cells and its selectivity over bacteria. […] Furthermore, we evaluated the photo‐ and chemical stability of the peptide 17 in human urine upon continuous light irradiation. In these assays, we ran both fluorescence and HPLC analysis to confirm that the peptide 17 was fully stable for the clinical evaluation of urine samples using fluorescence‐based assays (Figure 4e and Figure S13).
[…] Environmental sensitivity was measured by comparing the fl uore sce nc e emission in Me OH vs gl yc e rol (c om pounds 4-7) a nd i n pre se nc e of l i posom e suspe nsi ons i n PB Sor PBS a l one (c om pound 17). […]

The test system of a further series is C. glabrata. Format: cell-based, Candida glabrata. To be noted: 48 h. As to the method:
(§1) Figure 4 a) Synthetic procedure for the preparation Fmoc‐Phe(pMP‐BODIPY)‐OH (11). Inset: pictures of solutions of probe 17 (30 μM) under excitation with a 365 nm UV‐lamp in PBS (left) and in liposomes (right). b) Minimum inhibitory concentration (MIC) values of peptides 12–16 against different Candida strains (5×10^5 cells mL^−1) in 20 % Vogel's medium after 48 h incubation at 37 °C. MIC was determined by brightfield microscopy from three independent experiments. c) Chemical structure of peptide 17 and fluorogenic response (25 μM) in PBS (black) and in aqueous suspensions containing liposomes (red). λ exc: 530 nm (n=3). d) MIC values of peptide 17 against different Candida strains and bacteria (5×10^5 cells mL^−1) in 10 % liquid LB medium after 48 h incubation at 37 °C. MIC was determined by brightfield microscopy from three independent experiments (n=3). e) Normalised fluorescence of probe 17 (30 μM) when incubated in diluted urine samples under continuous light irradiation. λ exc: 530 nm. Data presented as mean±SD (n=3). TEXT PRINTED IN THE PICTURE: (a) no label printed: QY 0.08% (OFF); QY 14.9% (ON) | (b) 12: MIC (μmol L^-1) C. inconspic.: 60; MIC (μmol L^-1) C. arius: > 60; MIC (μmol L^-1) C. albicans: 15; MIC (μmol L^-1) C. rugosa: 15; MIC (μmol L^-1) C. glabrata: 30; MIC (μmol L^-1) C. krusei: 30 | (b) 13: MIC (μmol L^-1) C. inconspic.: 2; MIC (μmol L^-1) C. arius: 4; MIC (μmol L^-1) C. albicans: 4; MIC (μmol L^-1) C. rugosa: 16; MIC (μmol L^-1) C. glabrata: 8; MIC (μmol L^-1) C. krusei: 4 | (b) 14: MIC (μmol L^-1) C. inconspic.: > 60; MIC (μmol L^-1) C. arius: > 60; MIC (μmol L^-1) C. albicans: > 60; MIC (μmol L^-1) C. rugosa: > 60; MIC (μmol L^-1) C. glabrata: > 60; MIC (μmol L^-1) C. krusei: > 60 | (b) 15: MIC (μmol L^-1) C. inconspic.: 4; MIC (μmol L^-1) C. arius: > 60; MIC (μmol L^-1) C. albicans: 16; MIC (μmol L^-1) C. rugosa: > 60; MIC (μmol L^-1) C. glabrata: 16; MIC (μmol L^-1) C. krusei: 8 | (b) 16: MIC (μmol L^-1) C. inconspic.: 2; MIC (μmol L^-1) C. arius: 32; MIC (μmol L^-1) C. albicans: 4; MIC (μmol L^-1) C. rugosa: 32; MIC (μmol L^-1) C. glabrata: 4; MIC (μmol L^-1) C. krusei: 8 | (c) peptide 17: λexc.: 530 nm; λem.: 625 nm | (d) peptide 17: MIC (μmol L^-1) C. inconspicua: 8; MIC (μmol L^-1) C. arius: 64; MIC (μmol L^-1) C. albicans: 16; MIC (μmol L^-1) C. rugosa: 64; MIC (μmol L^-1) C. glabrata: 32; MIC (μmol L^-1) C. krusei: 8; MIC (μmol L^-1) E. Coli: > 200 DOUBTS OF THE COPYIST ABOUT THIS PICTURE: Panel a, QY 0.08% / 14.9%: the picture prints no substance label beside the OFF/ON photographs, so the label is left empty / Panel d: the table itself prints no substance label; it is assigned to 'peptide 17', printed directly above it in panel c / Panel c, λexc. 530 nm and λem. […]

A further series relates to C. albicans. In kind it is cell-based, Candida albicans. The conditions noted are these: 48 h. The procedure: as §1
A further series relates to C. krusei. Format: cell-based, Candida krusei. The conditions noted are these: 48 h. The procedure:
as §1

In another series the test system is C. rugosa. Format: cell-based, Candida rugosa. To be noted: 48 h. As to the method: as §1
The test system of a further series is C. inconspicua. Format: cell-based, Candida inconspicua. The conditions noted are these: 48 h. As to the method: as §1

Take `CC[C@H](C)[C@H](NC(=O)[C@H](CO)NC(=O)[C@@H](NC(=O)[C@H](CCCCN)NC(=O)[C@H](Cc1ccc(C2=C3C=CC(c4ccc(OC)cc4)=[N+]3[B-](F)(F)n3c2ccc3-c2ccc(OC)cc2)cc1)NC(=O)[C@@H]1CCCN1)[C@@H](C)CC)C(=O)N[C@@H](Cc1c[nH]cn1)C(=O)N[C@@H](CC(C)C)C(N)=O` [peptide 17, H-Pro-Phe(pMP-BODIPY)-Lys-Ile-Ser-Ile-His-Leu-NH2] (H-P[X1]KISIHL-NH2): in series [1] (30 µM, 384-well plates, 37 °C, fluorescence emission 644 nm, λexc 530 nm, mean of three independent experiments n=3), the “Photostability in human urine upon continuous light irradiation” value is recorded as “fully stable”. Besides, in series [1] (100 µM, 37 °C, 0, 1 and 10 h, HPLC-MS, absorbance 570 nm), the “Chemical stability (integrity) in human urine” value is reported as “fully stable”.

Turning to `CC[C@H](C)[C@@H]1NC(=O)[C@H](CO)NC(=O)[C@H]([C@@H](C)CC)NC(=O)[C@H](CCCCN)NC(=O)[C@H](Cc2ccccc2)NC(=O)[C@@H]2CCCN2C(=O)[C@H](CC(C)C)NC(=O)[C@H](Cc2c[nH]cn2)NC1=O` [peptide 14] (cyclo(FKISIHLP)), the “MIC C. glabrata” value against C. glabrata is more than 60 µM. The “MIC C. albicans” value against C. albicans is more than 60 µM. Further, in the series on C. krusei, the “MIC C. krusei” value is more than 60 µM. Also, the “MIC C. rugosa” value with C. rugosa was more than 60 µM. Besides, in the series with C. inconspicua, the “MIC C. inconspic.” value was more than 60 µM.

For WFKIIKK-NH2 [peptide 15], the “MIC C. glabrata” value against C. glabrata was 16 µM. Besides, the “MIC C. albicans” value against C. albicans was 16 µM. The “MIC C. krusei” value against C. krusei amounted to 8 µM. Further, in the series with C. rugosa, the “MIC C. rugosa” value is more than 60 µM. Besides, the “MIC C. inconspic.” value against C. inconspicua came to 4 µM.

As for `CC[C@H](C)[C@@H]1NC(=O)[C@H](CCCCN)NC(=O)[C@H](Cc2ccccc2)NC(=O)[C@H](Cc2c[nH]c3ccccc23)NC(=O)[C@H](CCCCN)NC(=O)[C@H](CCCCN)NC(=O)[C@H]([C@@H](C)CC)NC1=O` [compound 16] (cyclo(FKIIKKW)), in the series with C. glabrata, the “MIC C. glabrata” value was found to be 4 µM (≈ 3.78 µg/mL). In the series with C. albicans, the “MIC C. albicans” value was determined as 4 µM (≈ 3.78 µg/mL). For the same compound, the “MIC C. krusei” value in the series with C. krusei was determined as 8 µM (≈ 7.55 µg/mL). The “MIC C. rugosa” value in the series with C. rugosa was 32 µM (≈ 30.2 µg/mL). Moreover, in the series with C. inconspicua, the “MIC C. inconspic.” value amounted to 2 µM (≈ 1.89 µg/mL).

As to “H-FVQWFSKFLGKIL-NH2 [peptide 12, H-Phe-Val-Gln-Trp-Phe-Ser-Lys-Phe-Leu-Gly-Lys-Ile-Leu-NH2]”, the “MIC C. glabrata” value against C. glabrata turned out to be 30 µM. Moreover, the “MIC C. albicans” value in the series with C. albicans was 15 µM. Also, in the series with C. krusei, the “MIC C. krusei” value was 30 µM. Further, the “MIC C. rugosa” value in the series on C. rugosa turned out to be 15 µM. In the series on C. inconspicua, the “MIC C. inconspic.” value stood at 60 µM.

The record behind these values is publication PMC9305947, “Rational Design of Phe‐BODIPY Amino Acids as Fluorogenic Building Blocks for Peptide‐Based Detection of Urinary Tract Candida Infections” (Angewandte Chemie (International Ed. in English), 2022).
